Data set [1] addresses T1, Peroxisome proliferator-activated receptor gamma (Homo sapiens) (UniProt P37231).
T1 sequence (whole entry): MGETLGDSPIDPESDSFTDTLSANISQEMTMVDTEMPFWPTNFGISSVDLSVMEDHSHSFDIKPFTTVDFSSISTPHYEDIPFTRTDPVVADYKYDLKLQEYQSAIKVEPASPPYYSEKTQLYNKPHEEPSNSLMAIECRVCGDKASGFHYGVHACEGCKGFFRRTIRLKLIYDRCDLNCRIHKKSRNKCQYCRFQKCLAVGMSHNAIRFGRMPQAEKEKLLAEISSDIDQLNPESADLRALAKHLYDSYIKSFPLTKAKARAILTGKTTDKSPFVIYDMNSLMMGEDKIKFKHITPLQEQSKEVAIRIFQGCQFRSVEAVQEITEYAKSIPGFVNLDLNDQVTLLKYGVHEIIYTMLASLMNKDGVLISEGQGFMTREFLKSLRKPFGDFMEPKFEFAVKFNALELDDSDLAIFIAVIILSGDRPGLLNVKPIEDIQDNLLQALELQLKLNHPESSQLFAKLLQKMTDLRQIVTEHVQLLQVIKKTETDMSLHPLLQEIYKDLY
As to the kind of experiment: Transactivation of full length human FLAG-tagged PPARgamma1 LBD expressed in rat Ac2F cells at 5 to 10 uM after 6 hrs by luciferase reporter gene assay. Format: cell-based. (In general: In a reporter assay the amount or activity of a reporter protein is the signal.)

Data set [2] is described as follows: Cytotoxicity against rat Ac2F cells assessed as decrease in cell viability after 24 hrs by WST assay. Format: cell-based.

Activity calls are given as the source filed them. The calls are words filed in the database; no cut-off is given here.

With `COC(=O)CC1CCC(=O)/C1=C/CCc1ccccc1` (stereo not drawn), in data set [1], the outcome was inactive.

`COC(=O)CC1CCC(=O)C1=CC(C)c1ccccc1` (stereo not drawn): the result in data set [1] was inactive.

Regarding `COC(=O)CC1CCC(=O)C1CC1CCCCC1` (stereo not drawn), the outcome in data set [1] was inactive.

Consider `COC(=O)CC1CCC(=O)C1=CCC(C)C` (stereo not drawn), for which, in data set [1], the result was Active.

As to `CCCCC(C=C1C(=O)CCC1CC(=O)OC)CC` (stereo not drawn), the outcome in data set [1] was Active.

On to `CCC=C1C(=O)CCC1CC(=O)OC` (stereo not drawn), for which the result in data set [1] was inactive.

For `COC(=O)CC1CCC(=O)C1=CC(OC)OC` (stereo not drawn), in data set [1], the result was Active.

In the case of `COC(=O)CC1CCC(=O)C1=CC1CCCCC1` (stereo not drawn), the outcome in data set [1] was Active. For the same molecule, the Activity entry in data set [2] was “Non-Toxic”.

`CCCC=C1C(=O)CCC1CC(=O)OC` (stereo not drawn): the outcome in data set [1] was inactive.

For the molecule `COC(=O)CC1CCC(=O)C1=CC1CCCC1` (stereo not drawn), the result in data set [1] was Active.

In the case of `COC(=O)CC1CCC(=O)C1=CC(c1ccccc1)c1ccccc1` (stereo not drawn), the outcome in data set [1] was inactive.

In the case of `CCOC(=O)C[C@H]1CCC(=O)/C1=C/C1CCCCC1`, the result in data set [1] was Active.

For `CCCCCCCC=C1C(=O)CCC1CC(=O)OC` (stereo not drawn), in data set [1], the result was inactive.

Take `COC(=O)CC1CCC(=O)C1=CCc1ccccc1` (stereo not drawn): the result in data set [1] was Active.

`COC(=O)CC1CCC(=O)/C1=C/C1CCCCC1` (stereo not drawn): the outcome in data set [1] was Active.

Consider `CCOC(=O)C[C@@H]1CCC(=O)/C1=C/C1CCCCC1`, for which the result in data set [1] was Active.

On to `CCCCCCC=C1C(=O)CCC1CC(=O)OC` (stereo not drawn), for which, in data set [1], the outcome was inactive.

In the case of `CCOC(=O)CC1CCC(=O)/C1=C/C1CCCCC1` (stereo not drawn), the result in data set [1] was Active.

With `O=C(O)CC1CCC(=O)/C1=C/C1CCCCC1` (stereo not drawn), in data set [1], the result was Active.

Regarding `CCCCCCCCC=C1C(=O)CCC1CC(=O)OC` (stereo not drawn), in data set [1], the outcome was inactive.

Consider `CCCCC=C1C(=O)CCC1CC(=O)OC` (stereo not drawn), for which the outcome in data set [1] was inactive.

As for `COC(=O)CC1CCC(=O)/C1=C\CCc1ccccc1` (stereo not drawn), the result in data set [1] was inactive.

These data come from ChEMBL document CHEMBL4270639, “Design of PPAR-γ agonist based on algal metabolites and the endogenous ligand 15-deoxy-Δ12, 14-prostaglandin J2” (Eur J Med Chem, 2018).
